Key:
[1] = Demetallation of model mixture (DAO + NiETIO + OEPVO): catalysed oxidation, metal removal, residual vanadium by X-ray fluorescence; settings: by mass
Text: (§1) Le procédé de démétallation selon l'invention a été testé sur un mélange modèle de fractions pétrolières lourdes, composé d'un produit pétrolier ne contenant pas de nickel ni de vanadium, auxquelles ont été ajoutées des porphyrines modèles de nickel et de vanadium (exemples 1 à 4, 6 et 7).
(§2) La fraction pétrolière utilisée dans les exemples (DAO) est une huile désasphaltée au solvant, issue d'un résidu sous vide du brut Safaniya d'Arabie Saoudite. Il s'agit donc d'un résidu sous vide dépourvu d'asphaltènes, et donc de pétroporphyrines, pauvre en nickel (<0,2 ppm) et en vanadium (<0,1 ppm).
(§3) Les porphyrines modèles utilisées sont l'étioporphyrine de nickel (NiETIO) et l'octaéthylporphyrine de vanadyle (OEPVO), qui sont disponibles commercialement. Leurs formules sont les suivantes : [drawing 5] […]
(§4) Les différentes fractions sont ensuite évaporées afin de recueillir la fraction pétrolière de 2,02 g (soit un bilan matière de 97 %) qui est ensuite analysée par spectrométrie à fluorescence X pour en déceler 31 ppm de nickel et 54 ppm de Vanadium. […]
(§5) Les différentes fractions sont ensuite évaporées afin de recueillir la fraction pétrolière avec un bilan matière de 97% (en masse) et des teneurs en Nickel et Vanadium analysées par spectrométrie à fluorescence X de moins de 10 ppm (en masse). […]

[2] = Demetallation of model mixture (DAO + NiETIO + OEPVO): catalysed oxidation, metal removal, residual nickel by X-ray fluorescence; settings: by mass
Text: as §1, §2, §3, §4, §5

Structure (SMILES): Clc1cccc(Cl)c1-c1c2nc(c(-c3c(Cl)cccc3Cl)c3ccc([n-]3)c(-c3c(Cl)cccc3Cl)c3nc(c(-c4c(Cl)cccc4Cl)c4ccc1[n-]4)C=C3)C=C2.[Mn+2] [Exemple 4, méso-tétra-(2,6-dichloro) phényl porphyrinede manganèse]
- Après traitement V Taux d'élimination [1]: 96,1%
- Après traitement Ni Taux d'élimination [2]: 93,8%

Reference: EP1939270B1, “Demetallation of oil and hydrocarbon cuts and use of same” (TOTAL RAFFINAGE MARKETING, priority 2006, dated 2008)
